Activity calls are given as the source filed them. No rule for the calls is given here. Peptide text beside a SMILES is read from it. * marks the point of attachment. Cbz = O=C(OCc1ccccc1)*
Tested on: in vivo angiogenesis, blood vessel count
Assay: angiogenesis inhibition in living animals, in vivo study, HTS (AID 732);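 also: zebrafish embryos dosed at one day post fertilization; 0% = reference inhibitor and 100% = plate mean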
Conditions: stronger effect = lower value;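 tested at 30 µM in the well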

SMILES	vessel count % control
Cc1cccc(C(=O)NCN2CCN(c3ccccc3C#N)CC2)c1	110% (inactive)
C[C@@H]1C(=O)NC2=Nc3cccc(Cl)c3CN21	119% (inactive)
O=C(c1cc(O)c(O)c([N+](=O)[O-])c1)c1ccccc1F	116% (inactive)
CC(C)C(=O)Nc1ccc([N+](=O)[O-])c(C(F)(F)F)c1	113% (inactive)
OCc1cnc[nH]1	106% (inactive)
CC(C)NCC(O)COc1ccc(CCOCC2CC2)cc1 (centres undefined)	94.3% (inactive)
OCCN1CCN(CCCN2c3ccccc3Sc3ccc(C(F)(F)F)cc32)CC1	116% (inactive)
N[C@H]1CONC1=O	93% (inactive)
CCNC(=O)N1CCN(CCCC(c2ccc(F)cc2)c2ccc(F)cc2)CC1	83.9% (inactive)
Oc1ccc2c3c1O[C@H]1c4[nH]c5ccccc5c4C[C@@]4(O)C(C2)N(CC2CC2)CCC314 (some centres undefined)	115% (inactive)
CC(C)c1cccc(C(C)C)c1O	99.6% (inactive)
c1ccc2c(c1)CCCC2C1=NCCN1 (centres undefined)	76% (inactive)
Cc1c(OCC(F)(F)F)ccnc1CS(=O)c1nc2ccccc2[nH]1 (centres undefined)	76.7% (inactive)
COc1ccc(CNC(=O)/C=C/c2ccc3[nH]cc(CCN(C)C)c3c2)cc1	75.8% (inactive)
O=C(Cc1ccc(Cl)c(Cl)c1)OCCN1CCCC1	81.9% (inactive)
c1cc(CN2CCCCC2)cc(OCCCNc2nc3ccccc3s2)c1	112% (inactive)
CCn1nc(C(=O)O)c(=O)c2cc3c(cc21)OCO3	102% (inactive)
CC(=O)O[C@H]1C[C@@H]2CC[C@@H]3[C@H](CC[C@@]4(C)[C@H]3C[C@H]([N+]3(C)CCCCC3)[C@@H]4OC(C)=O)[C@@]2(C)C[C@@H]1[N+]1(C)CCCCC1	98% (inactive)
CCCCCCCCCCCCCCCCCC(=O)OC(CC(=O)O)C[N+](C)(C)C (centres undefined)	71.9% (inactive)
O=c1cc(O)cc(/C=C/c2ccc(O)c(O)c2)o1	122% (inactive)
O=C(/C=C/c1ccc(O)cc1)c1ccc(O)cc1O	98.4% (inactive)
Nc1nc(Cl)nc2c1ncn2[C@@H]1O[C@H](COP(=O)(O)OP(=O)(O)OP(=O)(O)O)[C@H](O)C1O (some centres undefined)	107% (inactive)
NCC1OC(O[C@@H]2[C@H](O)C(OC3C(O)C(N)CC(N)C3OC3OC(CO)C(O)C(O)C3N)O[C@@H]2CO)C(N)C(O)C1O (some centres undefined)	116% (inactive)
Cc1cccc(C#Cc2ccccc2)n1	92.1% (inactive)

SMILES	vessel count % control
NCCCC(=O)O	109% (inactive)
O=C(Nc1cc(C(=O)Nc2ccc(S(=O)(=O)O)cc2S(=O)(=O)O)cc(C(=O)Nc2ccc(S(=O)(=O)O)cc2S(=O)(=O)O)c1)Nc1cc(C(=O)Nc2ccc(S(=O)(=O)O)cc2S(=O)(=O)O)cc(C(=O)Nc2ccc(S(=O)(=O)O)cc2S(=O)(=O)O)c1	118% (inactive)
N[C@H](C(=O)O)[C@H]1C[C@@H]1C(=O)O	92.9% (inactive)
NCC(O)c1cc(O)c(O)cc1F (centres undefined)	87.4% (inactive)
NCCCCN=C(N)N	106% (inactive)
Cn1c(=O)c2[nH]c(-c3ccccc3)nc2n(C)c1=O	117% (inactive)
CC(N)=NCc1cccc(CN)c1	104% (inactive)
Nc1ccncc1	118% (inactive)
CN(C)CCOC(=O)COc1ccc(Cl)cc1	102% (inactive)
CN1CCN(C2=Nc3cc(Cl)ccc3Nc3ccccc32)CC1	98.7% (inactive)
CC(C)(C)c1onc(OCP(=O)(O)O)c1CC(N)C(=O)O (centres undefined)	88.9% (inactive)
CC(C)[N+](C)(CCOC(=O)C1c2ccccc2Oc2ccccc21)C(C)C	134% (inactive)
Cc1ccccc1/C=C/C1=NCCN1	102% (inactive)
CCCN(CC1CC1)c1nc(C)nc(Nc2c(Cl)cc(Cl)cc2Cl)c1Cl	125% (inactive)
C[C@H]1c2cccc(O)c2C(O)=C2C(=O)[C@]3(O)C(O)=C(C(N)=O)C(=O)[C@@H](N(C)C)[C@@H]3[C@@H](O)[C@@H]21	91.8% (inactive)
COc1ccc2c(c1)c(CC(=O)O)c(C)n2Cc1ccc(F)cc1	106% (inactive)
COc1cc(=O)n(C)c2c(OCC(O)C(C)(C)O)cccc12 (centres undefined)	75.4% (inactive)
NC(=O)c1cc(N2CC2)c([N+](=O)[O-])cc1[N+](=O)[O-]	107% (inactive)
COc1ccccc1NC(=O)Nc1nc(-c2cccnc2)nc2ccccc12	85.6% (inactive)
COc1cccc(C(=O)NCCN2CCN(c3ccc(Cl)cc3)CC2)c1	66.6% (inactive)
CO/N=C(\C(=O)N[C@@H]1C(=O)N2C(C(=O)O)=C(COC(C)=O)CS[C@H]12)c1csc(N)n1 (stereo in doubt)	104% (inactive)
COc1cc2c(c(OC)c1OC)-c1ccc(OC)c(=O)cc1[C@@H](NC(C)=O)CC2	116% (inactive)
O=C(CCCN1CCC2(CC1)C(=O)NCN2c1ccccc1)c1ccc(F)cc1	77.9% (inactive)
Cc1ccc(/C(=C\CN2CCCC2)c2ccccn2)cc1	80% (inactive)

SMILES	vessel count % control
COc1cc2c(cc1C(F)(F)F)N(C(=O)Nc1cc(F)cc(-c3cccnc3)c1)CC2	95.3% (inactive)
CN1CCN(CC(=O)N2c3ccccc3C(=O)Nc3cccnc32)CC1	95.1% (inactive)
Nc1nc(OCc2ccccc2)c2[nH]cnc2n1	91% (inactive)
C=C(C)C1CC=C(C(=O)O)CC1 (centres undefined)	109% (inactive)
CN1CCc2c(cc(O)c(O)c2Cl)C(c2cccc(Cl)c2)C1 (centres undefined)	118% (inactive)
CCN1CCC[C@H]1CNC(=O)c1cc(S(N)(=O)=O)ccc1OC	89.7% (inactive)
C[C@@H]1O[C@H](C[N+](C)(C)C)CS1	89.1% (inactive)
O=C(O)CCc1nc(-c2ccccc2)c(-c2ccccc2)o1	73.7% (inactive)
C[C@@H](NC(=O)/C(C#N)=C/c1ccc(O)c(O)c1)c1ccccc1	128% (inactive)
CC12C(=O)OC(=O)C1(C)C1CCC2O1 (centres undefined)	0% (inactive)
C=CCN1CCC2(C)c3cc(O)ccc3CC1[C@@H]2C (some centres undefined)	89.5% (inactive)
O=[N+]([O-])c1cccc2c(Br)[nH]nc12	99.9% (inactive)
NC(=NCCC[C@H](N)C(=O)O)NO	99% (inactive)
O=NN(CCCl)C(=O)NCCCl	96.9% (inactive)
N=S(=O)(O)Cc1noc2ccccc12	88.2% (inactive)
Cc1[nH]c2ccc(O)cc2c1CCN	87% (inactive)
CCN(CC)CCNC(=O)c1cc(S(C)(=O)=O)ccc1OC	68.7% (inactive)
O=C(O)c1cc(=O)cc(C(=O)O)[nH]1	86.1% (inactive)
OC1(c2ccc(Cl)cc2)CCN(Cc2c[nH]c3ccccc23)CC1	96.6% (inactive)
O=Nc1c(-c2c(O)[nH]c3ccc(S(=O)(=O)O)cc23)[nH]c2ccccc12	92.9% (inactive)
CC(C)(O)[C@@H]1[C@H]2OC(=O)[C@@H]1[C@]1(O)C[C@H]3O[C@]34C(=O)O[C@H]2[C@]14C (tested in a mixture with another compound)	116% (inactive)
COc1ccc(CN(CCN(C)C)c2ccccn2)cc1	106% (inactive)
CN(Cc1cnc2nc(N)nc(N)c2n1)c1ccc(C(=O)N[C@@H](CCC(=O)O)C(=O)O)cc1	112% (inactive)
N#CC(=C(\N)Sc1ccccc1N)/C(C#N)=C(/N)Sc1ccccc1N	94.5% (inactive)

SMILES	vessel count % control
CP(=O)(O)CCCN	76.1% (inactive)
C/C=C/CC(C)C(O)C1C(=O)NC(CC)C(=O)N(C)CC(=O)N(C)C(CC(C)C)C(=O)NC(C(C)C)C(=O)N(C)C(CC(C)C)C(=O)NC(C)C(=O)NC(C)C(=O)N(C)C(CC(C)C)C(=O)N(C)C(CC(C)C)C(=O)N(C)C(C(C)C)C(=O)N1C (centres undefined)	108% (inactive)
CCCN1CCc2cccc3c2[C@H]1Cc1ccc(O)c(O)c1-3	89.9% (inactive)
Oc1ccc(/C=C/c2cc(O)cc(O)c2)cc1	100% (inactive)
CC(C)[C@H](NC(=O)OCc1ccccc1)C(=O)N[C@H](C=O)Cc1ccccc1 (Cbz-Val-Phe-aldehyde)	107% (inactive)
COc1ccc(Cl)cc1C(=O)NCCc1ccc(S(=O)(=O)NC(=O)NC2CCCCC2)cc1	94.8% (inactive)
Clc1ccc(C(c2ccccc2Cl)C(Cl)Cl)cc1 (centres undefined)	92.7% (inactive)
NCCc1ccc(O)cc1	90.2% (inactive)
COC[C@H]1OC(=O)c2coc3c2[C@@]1(C)C1=C(C3=O)C2CCC(=O)[C@@]2(C)C[C@H]1OC(C)=O (some centres undefined)	0% (inactive)
NS(=O)(=O)c1cc2c(cc1Cl)NCNS2(=O)=O	103% (inactive)
C/C=C1\C(=O)CC2C3CCC4=CC(=O)CC[C@]4(C)C3CC[C@]12C (some centres undefined)	102% (inactive)
COc1ccc2[nH]cc(CCNC(C)=O)c2c1	76.5% (inactive)
NCCc1c[nH]c2ccc(O)cc12	84.5% (inactive)
NC(=NCc1ccccc1)NC(=O)c1nc(Cl)c(N)nc1N	107% (inactive)
CC(C)NC[C@@H](O)c1ccc(O)c(O)c1	108% (inactive)
C[N+]1(C)CCc2cc3c(cc2[C@H]1[C@@H]1OC(=O)c2c1ccc1c2OCO1)OCO3	85.4% (inactive)
CN(C(=O)CCCOc1ccc2[nH]c(=O)ccc2c1)C1CCCCC1	94.5% (inactive)
Cc1cnc(NC(=O)C2=C(O)c3ccccc3S(=O)(=O)N2C)s1	136% (inactive)
CC1=NS(=O)(=O)c2cc(Cl)ccc2N1	116% (inactive)
COc1ccc2c(c1)/C(=C/c1cnc[nH]1)C(=O)N2	73.2% (inactive)
CCN(CCCl)Cc1ccccc1Br	99.8% (inactive)
CCCC1O[C@@H]2C[C@H]3[C@@H]4CCC5=CC(=O)C=C[C@]5(C)[C@H]4[C@@H](O)C[C@]3(C)[C@]2(C(=O)CO)O1 (some centres undefined)	120% (inactive)
